Test results published in patent publication US20250388593A1 (MITSUBISHI TANABE PHARMA CORPORATION, priority 2023, published 2025).

Experiment: Stability against racemization (chiral HPLC)
Format: physicochemical
Experimental: Test Example 7: Stability Against Racemization Each test sample (1 mg) was dissolved in CH3CN (1 mL), and 0.1 M N-methylmorpholine aqueous solution (adjusted to pH 7.4 with 1N HCl) (1 mL) was added to dilute the solution twofold, thereby preparing a solution with a final concentration of 0.5 mg/mL. The sample was divided into nine portions of 150 μL each, and each portion was placed in a sampler set to 37° C. The enantiomers in the sample were quantified at 0, 1, 3, 6, 24, 48, 72, and 167 hours under the following HPLC conditions, and the enantiomeric excess (ee) at each time point was calculated.
As test samples, Example Compound 211-1 was used as an example, while (S)-thalidomide represented by the following formula
• Equipment: ACQUITY UPLC H-Class Waters • Column: […] IE-3 (3 μm, 4.6×150 mm) Daicel Corporation • Flow rate: 0.5 mL/min • Column temperature: 25° C.
• Mobile phase: 100% MeOH • Injection volume: 0.7 μL • Detection wavelength: 217.0 nm
• Mobile phase: 100% MeOH • Injection volume: 1.2 μL • Detection wavelength: 221.0 nm
• Mobile phase: EtOH/CH3CN=90/10 • Injection volume: 1.5 μL • Detection wavelength: 221.0 nm

[1] = 0 h, pH 7.4, 37° C., CH3CN/0.1 M N-methylmorpholine aqueous solution

Row | ee Normalized to 100 at 0 min (0 h, pH 7.4, 37° C.) | ee [1] | ee (24 h, pH 7.4, 37° C.) | ee Normalized to 100 at 0 min (24 h, pH 7.4, 37° C.) | ee (48 h, pH 7.4, 37° C.) | ee Normalized to 100 at 0 min (48 h, pH 7.4, 37° C.) | ee (72 h, pH 7.4, 37° C.) | ee Normalized to 100 at 0 min (72 h, pH 7.4, 37° C.) | ee (167 h, pH 7.4, 37° C.) | ee Normalized to 100 at 0 min (167 h, pH 7.4, 37° C.) | ee (Initial) | SMILES
1 | 100 | 96.08 | 77.77 | 80.94 | 62.84 | 65.4 | 50.69 | 52.76 | 21.53 | 22.41 | 95.39 | Cn1c(=O)n([C@@H]2CCC(=O)NC2=O)c2cccc(I)c21 [Compound A′]
2 | 100 | 99.43 | 87.71 | 88.21 | 77.71 | 78.16 | 70.06 | 70.46 | 41.83 | 42.07 | 99.44 | Cn1c(=O)n([C@@H]2CCCC(=O)NC2=O)c2cccc(I)c21 (stereo in doubt) [Example 211-1, 3-(4-Iodo-3-methyl-2-oxobenzimidazol-1-yl) azepane-2,7-dione]
